Values quoted from earlier work in patent US20250043462A1, “INSECT REPELLENT POLYETHYLENE TEREPHTHALATE FIBERS” (The Government of the United States of America, as …, priority 2023, published 2025).

Conditions: commercially available repellent sprays

Row | Structure (SMILES) | duration of repellency before reapplication
1 | CCN(CC)C(=O)c1cccc(C)c1 [DEET, N,N,-diethyl-meta-toluamide] | up to 10 h
2 | CCC(C)OC(=O)N1CCCCC1CCO (centres unmarked) [Picaridin, 1-(1-methylpropoxycarbonyl)-2-(2-hydroxyethyl)piperidine] | ≤ 8 h
